Experimental data: patent publication US8058243B2, “Method for treating a brain cancer with ifenprodil” (HSC Research and Development Limited Partnership, priority 2006, dated 2011)
Where a name gives a salt, the structure may show the parent alone. Read-outs that look alike come from different tables or passages of the source.

System: murine neural precursor cells (neurosphere cultures)
Test: HTS of LOPAC library against secondary neurosphere cultures, MTT proliferation assay at 3 μM, day 7 (z score, P value)
Format: cell-based, mouse
[1] = LOPAC library screen, 3 μM, MTT, neurosphere cultures
[2] = LOPAC primary screen, neurosphere MTT proliferation, 3 μM, day 7
[3] = yes = significantly inhibited neurosphere proliferation (P<0.01) in the primary screen
[4] = yes/no: significantly inhibited neurosphere proliferation in the primary screen
[5] = LOPAC library screen at 3 μM, secondary neurosphere cultures, MTT
[6] = yes/no: significantly inhibited neurosphere proliferation in primary screen
[7] = LOPAC library screen, 3 μM, MTT, secondary neurosphere cultures, day 7
[8] = yes/no: significantly inhibited neurosphere proliferation (P<0.01) in the primary screen
[9] = yes/no: significantly inhibited neurosphere proliferation (P<0.01) in primary screen
[10] = LOPAC screen, neurosphere MTT proliferation, 3 μM, day 7

In the case of `NC(=O)C1=CN([C@@H]2O[C@H](COP(=O)([O-])OP(=O)([O-])OC[C@H]3O[C@@H](n4cnc5c(N)ncnc54)[C@H](OP(=O)([O-])[O-])[C@@H]3O)[C@@H](O)[C@H]2O)C=CC1.[Na+].[Na+].[Na+].[Na+]` [NADPH tetrasodium], the “Z Score” value [1] was 0.3021, the Z score [2] was 0.302 and the Activity [3] was “no”.

In the case of `COc1ccccc1N1CCN(CCCNc2cc(=O)n(C)c(=O)n2C)CC1` [Urapidil hydrochloride], the “Z Score” value (168 h, 3 µM) was 0.1572, the Z score (168 h, 3 µM) was 0.157 and the Activity [4] was “no”.

`CC1COc2c(N3CCN(C)CC3)c(F)cc3c(=O)c(C(=O)O)cn1c23` (centres unmarked) [Ofloxacin] was tested, and the “Z Score” value [5] was −0.4889 and the Z score [2] was −0.489.

For `CNCCCC1c2ccccc2C=Cc2ccccc21` [Protriptyline hydrochloride], the “Z Score” value [1] was 0.7603, the Z score [2] was 0.760 and the Activity [6] was “no”.

In the case of `CN1CCc2ccccc2Cc2[nH]c3ccccc3c2CC1` [LE 300], the Activity was “no”, the “Z Score” value was −1.07 and the Z score was −1.070.

In the case of `CC(C)NC[C@@H](O)c1ccc(O)c(O)c1.O=C(O)C(O)C(O)C(=O)O` [S(+)-Isoproterenol (+)-bitartrate], the “Z Score” value was −0.2963.

`C[C@]12CCC(=O)C=C1CC[C@@H]1[C@@H]2CC[C@@]2(C)[C@H]1CC[C@]2(O)C(=O)CO` [Cortexolone] was tested, and the “Z Score” value [5] was −0.6087, the Z score [2] was −0.609 and the Activity [6] was “no”.

In the case of `C=CCN1CC[C@]23c4c5ccc(O)c4O[C@H]2C(=O)CC[C@@]3(O)[C@H]1C5` [Naloxone hydrochloride], the “Z Score” value [7] was −10.14, the Z score [2] was −10.137 and the Activity [8] was “yes”.

For `NCC1(CC(=O)O)CCCCC1` [Gabapentin], the “Z Score” value was 0.8838, the Z score [2] was 0.884 and the Activity [9] was “no”.

`C=C(C)[C@@H]1CC=C(C(=O)O)CC1` [(−)-Perilic acid] was tested, and the Z score [2] was −1.321 and the Activity [6] was “no”.

With `O=c1[nH]c(=O)n([C@H]2C[C@H](O)[C@@H](CO)O2)cc1Br` [5-Bromo-2′-deoxyuridine] the Z score [10] was 2.580 and the Activity [9] was “no”.

For `CCCCCCCCCCCCC/C=C/[C@@H](O)[C@@H](N)CO` [Sphingosine], the “Z Score” value was 1.404, the Z score [2] was 1.404 and the Activity [6] was “no”.

`CCC1(C)CC(=O)NC1=O` (centres unmarked) [Ethosuximide] was tested, and the “Z Score” value [5] was −0.6124, the Z score [2] was −0.612 and the Activity [9] was “no”.

In the case of `CC1(C)NC(=O)N(c2ccc([N+](=O)[O-])c(C(F)(F)F)c2)C1=O` [Nilutamide], the “Z Score” value [1] was 0.1188, the Z score [2] was 0.119 and the Activity [3] was “no”.

For `CC(C)Cc1ccc(C(C)C(=O)O)cc1` (racemic) [(±)-Ibuprofen], the Z score [2] was −0.262 and the Activity [9] was “no”.

In the case of `O=C(O)CCCc1ccc(N(CCCl)CCCl)cc1` [Chlorambucil], the “Z Score” value was 0.08078, the Z score [2] was 0.081 and the Activity [8] was “no”.

For `CC(C)NC[C@@H](O)c1ccc(O)c(O)c1.O=C(O)C(O)C(O)C(=O)O` [S(+)-Isoproterenol(+)-bitartrate], the Z score [2] was −0.296 and the Activity [9] was “no”.

In the case of `C[C@H]1O[C@@H](n2cc(F)c(=O)[nH]c2=O)[C@H](O)[C@@H]1O` [5-fluoro-5′-deoxyuridine], the “Z Score” value [1] was 0.3787, the Z score [2] was 0.379 and the Activity [9] was “no”.

For `N#CC(=C(/N)Sc1ccccc1N)/C(C#N)=C(/N)Sc1ccccc1N` [U0126], the “Z Score” value was 0.711, the Z score (primary LOPAC screen, 3 μM, MTT, neurosphere proliferation) was 0.711 and the Activity [4] was “no”.

`Cl.NC1(C(=O)O)CCCCC1` [1-Amino-1-cyclohexanecarboxylic acid hydrochloride] was tested, and the “Z Score” value (168 h, 3 µM) was −0.7495, the Z score (168 h, 3 µM) was −0.749 and the Activity [4] was “no”.

In the case of `CC[N+](C)(C)Cc1ccccc1Br` [Bretylium tosylate], the Activity was “no”, the “Z Score” value [1] was −0.001709 and the Z score [10] was −0.002.

For `COC(=O)C1=CCCN(C)C1` [Arecoline hydrobromide], the Activity was “no”, the “Z Score” value was −0.111 and the Z score was −0.111.

`CC(C)Cn1c(=O)n(C)c(=O)c2[nH]cnc21` [3-Isobutyl-1-methylxanthine] was tested, and the “Z Score” value (168 h, 3 µM) was −0.774, the Z score (168 h, 3 µM) was −0.774 and the Activity [9] was “no”.

For `CCCN1CCC[C@H](c2cccc(O)c2)C1.Cl` [R(+)-3PPP hydrochloride], the “Z Score” value was −2.213, the Z score [2] was −2.213 and the Activity [6] was “no”.

For `O=C(O)CCCCCCCC(=O)O` [Azelaic acid], the “Z Score” value [1] was 0.1057, the Z score [2] was 0.106 and the Activity [6] was “no”.

With `C=C/C(C)=C/[C@@]1(C)SC(=O)C(C)=C1O` [Thiolactomycin] the “Z Score” value [7] was −1.3, the Z score [2] was −1.300 and the Activity [6] was “no”.

With `CNCCNS(=O)(=O)c1cccc2cnccc12.Cl.Cl` [H-8 dihydrochloride] the “Z Score” value was −1.583, the Z score [2] was −1.583 and the Activity [3] was “no”.

`Cc1c(CC(C)(C)C(=O)O)n(Cc2ccc(Cl)cc2)c2ccc(F)cc12` [L-655,240] was tested, and the “Z Score” value was −0.121, the Z score [2] was −0.121 and the Activity [9] was “no”.
